In one data set the test system is P388 Leukemia. In words: P388 leukemia in vivo (increase in lifespan). As to conditions: at OD; i.p. tumour, days 1, 5 and 9; >20% statistically significant.
Data set [1] can be described thus: Rm from reversed phase partition chromatography (lipophilic-hydrophilic balance).
Excerpt: (§1) Rm=a measure of the compound's lipophilic-hydrophilic balance from reversed phase partition chromatography. Rm is linearly related to partition coefficients obtained in the 1-octanol/water system.
The nature of a further data set: physchem. The note with it: reversed phase partition chromatography.
The subject of another data set is Lewis lung carcinoma. In words: Lewis lung carcinoma in vivo (increase in lifespan). The note with it: for ILS (percentage increase in lifespan), Lewis lung: i.v. tumour, days 1, 5 and 9, >40% statistically significant. An excerpt: LL. is the Lewis lung carcinoma.
The test system of the next data set is L1210 leukemia. As to conditions: earlier work, cited from earlier work.

Consider 54 molecules from patent publication US4603125A, “Substituted o-phenylenediamine acridine compounds having antitumor activity” (Development Finance Corporation of New Zealand, priority 1982, dated 1986).

“Also recorded” adds a separate entry of the source.

Excerpt for physchem: as §1

Consider `Cc1cccc2c(Nc3ccc(NS(C)(=O)=O)cc3NCC(O)CO)c3ccccc3nc12` (stereo not drawn) [Compound 31], for which the “ILSmax (percentage increase in lifespan), P388” value in the data set on P388 Leukemia is reported as 83%. In addition, the chromatographic logP (commonly lipophilicity estimated from chromatographic retention) in data set [1] amounted to 0.21. With `CNc1cc(NC(=O)OC)ccc1Nc1c2ccccc2nc2cc(F)ccc12` [Compound 53], in the data set on P388 Leukemia, the “ILSmax (percentage increase in lifespan), P388” value is recorded as 110%. For the same molecule, the chromatographic logP in data set [1] is 0.63. `CNc1cc(NC(=O)OC)ccc1Nc1c2ccccc2nc2ccccc12` [Compound 50]: the chromatographic logP in data set [1] turned out to be 0.51. On to `CNc1cc(NS(C)(=O)=O)ccc1Nc1c2ccccc2nc2cc(I)ccc12` [Compound 8], for which, in the data set on P388 Leukemia, the “ILSmax (percentage increase in lifespan), P388” value was determined as 80%. This molecule returned a chromatographic logP in data set [1] of 0.35. Regarding `CNc1cc(NS(C)(=O)=O)ccc1Nc1c2ccccc2nc2cc([N+](=O)[O-])ccc12` [Compound 9], in the data set with P388 Leukemia, the “ILSmax (percentage increase in lifespan), P388” value is given as 70%. This molecule showed a chromatographic logP in data set [1] of 0.04. Consider `CNc1cc(NS(=O)(=O)c2ccc(N)cc2)ccc1Nc1c2ccccc2nc2ccccc12` [Compound 62], for which the chromatographic logP in data set [1] worked out at 0.03.

The molecule `CNc1cc(NS(C)(=O)=O)ccc1Nc1c2ccc(OC)cc2nc2c(C)cccc12` [Compound 17] returned a chromatographic logP in data set [1] of 0.31. On the same count and under the same terms, the result for `CNc1cc(NC(=O)OC)ccc1Nc1c2ccccc2nc2cc(Br)ccc12` [Compound 55] reads 0.7. As to `CNc1cc(NS(C)(=O)=O)ccc1Nc1c2ccccc2nc2cc(Br)ccc12` [Compound 7], the “ILSmax (percentage increase in lifespan), P388” value with P388 Leukemia came out at 94%. In addition, the chromatographic logP in data set [1] came to 0.34. For the molecule `CNc1cc(NS(C)(=O)=O)ccc1Nc1c2ccc(Br)cc2nc2c(C)cccc12` [Compound 21], the chromatographic logP in data set [1] turned out to be 0.38.

`CNC(=O)c1cccc2c(Nc3ccc(NS(C)(=O)=O)cc3N(C)C)c3cccc(C)c3nc12` [Compound 44] showed a chromatographic logP in “physchem” of 0.4. As for `CNc1cc(NC(=O)Oc2ccccc2)ccc1Nc1c2ccccc2nc2ccccc12` [Compound 66], in the data set on P388 Leukemia, the “ILSmax (percentage increase in lifespan), P388” value worked out at 71%. The molecule also showed a chromatographic logP in data set [1] of 0.76. In the same order, the values of `CNc1cc(NS(C)(=O)=O)ccc1Nc1c2ccccc2nc2cc(OC)ccc12` [Compound 4] are 140% and 0.21. As to `CNC(=O)c1cccc2c(Nc3ccc(NS(C)(=O)=O)cc3NC)c3ccccc3nc12` [Compound 15], in the data set with P388 Leukemia, the “ILSmax (percentage increase in lifespan), P388” value stood at 82%. Further, the chromatographic logP in data set [1] worked out at 0.07. In data set [1], `CNc1cc(NS(C)(=O)=O)ccc1Nc1c2ccc(C)cc2nc2c(OC)cccc12` [Compound 22] showed a chromatographic logP of 0.33. Consider `CNc1cc(NC(=O)OC)ccc1Nc1c2ccccc2nc2cc(C)ccc12` [Compound 52], for which the “ILSmax (percentage increase in lifespan), P388” value with P388 Leukemia is 86%. The molecule further registered a chromatographic logP in data set [1] of 0.78. In turn, `CNc1cc(NS(C)(=O)=O)ccc1Nc1c2ccccc2nc2cc(Cl)ccc12` [Compound 6] yielded a chromatographic logP in data set [1] of 0.36. Turning to `CNc1cc(NC(=O)OC)ccc1Nc1c2ccccc2nc2c(C)cccc12` [Compound 58], the “ILS (percentage increase in lifespan), Lewis lung” value in the data set on Lewis lung carcinoma (at OD) was 48%. Also, in data set [1], the chromatographic logP worked out at 0.56. As for `CN(CCO)c1cc(NS(C)(=O)=O)ccc1Nc1c2ccccc2nc2ccccc12` [Compound 45], the “ILSmax (percentage increase in lifespan), P388” value in the data set on P388 Leukemia is given as 100%. For the same molecule, the chromatographic logP in data set [1] was 0.1. In the data set “physchem”, `COc1ccc2c(Nc3ccc(NS(C)(=O)=O)cc3N(C)C)c3cccc(C)c3nc2c1` [Compound 41] registered a chromatographic logP of 0.44. With `CNc1cc(NS(C)(=O)=O)ccc1Nc1c2cccc(C)c2nc2c(C)cccc12` [Compound 25], in data set [1], the chromatographic logP came out at 0.16. Take `CNC(=O)c1cccc2c(Nc3ccc(NS(C)(=O)=O)cc3NC)c3cccc(C)c3nc12` [Compound 24]: the “ILSmax (percentage increase in lifespan), P388” value with P388 Leukemia is reported as 94%. The chromatographic logP in data set [1] worked out at 0.23. In “physchem”, `Cc1cccc2c(Nc3ccc(NS(C)(=O)=O)cc3N(C)C)c3ccccc3nc12` [Compound 34] came in with a chromatographic logP of 0.36.

Regarding `CS(=O)(=O)Nc1ccc(Nc2c3ccccc3nc3ccccc23)c(NCC(O)CO)c1` (stereo not drawn) [Compound 30], in the data set with P388 Leukemia, the “ILSmax (percentage increase in lifespan), P388” value came out at 84%. In data set [1], this molecule yielded a chromatographic logP of 0.3. On to `CNc1cc(NS(=O)(=O)c2ccc(N)cc2)ccc1Nc1c2ccccc2nc2c(C)cccc12` [Compound 64], for which, in data set [1], the chromatographic logP was 0.13. As for `CNc1cc(NP(=O)(OC)OC)ccc1Nc1c2ccccc2nc2cc(Br)ccc12` [Compound 48], in the data set with P388 Leukemia, the “ILSmax (percentage increase in lifespan), P388” value is listed as 77%. Also, the chromatographic logP in data set [1] turned out to be 0.62. As to `CNc1cc(NS(C)(=O)=O)ccc1Nc1c2ccc(C)cc2nc2c(C)cccc12` [Compound 16], in the data set on P388 Leukemia, the “ILSmax (percentage increase in lifespan), P388” value came to 92%. In data set [1], this molecule yielded a chromatographic logP of 0.38. Regarding `Cc1cccc2c(Nc3ccc(NS(C)(=O)=O)cc3NCCO)c3ccccc3nc12` [Compound 29], the chromatographic logP in data set [1] was found to be 0.02. As for `CNc1cc(NC(=O)OC)ccc1Nc1c2ccc(Br)cc2nc2c(C)cccc12` [Compound 57], the “ILS (percentage increase in lifespan), Lewis lung” value with Lewis lung carcinoma (at OD) amounted to 82%. The “ILSmax (percentage increase in lifespan), P388” value with P388 Leukemia is 97%. In data set [1], this molecule returned a chromatographic logP of 0.69. As for `CNc1ccc2c(Nc3ccc(NS(C)(=O)=O)cc3NC)c3ccccc3nc2c1` [Compound 10], in data set [1], the chromatographic logP was determined as 0.18. `CNc1cc(NS(=O)(=O)c2ccccc2)ccc1Nc1c2ccccc2nc2ccccc12` [Compound 60] displayed a chromatographic logP in data set [1] of 0.55. `CNc1cc(NP(=O)(OC)OC)ccc1Nc1c2ccccc2nc2c(C)cccc12` [Compound 49]: the “ILSmax (percentage increase in lifespan), P388” value in the data set on P388 Leukemia worked out at 91%. Further, the chromatographic logP in data set [1] worked out at 0.47. The corresponding values for `CNc1cc(NS(C)(=O)=O)ccc1Nc1c2ccccc2nc2cc(C)ccc12` [Compound 3] are 83% and 0.39. `CNc1cc(NC(=O)OC)ccc1Nc1c2ccccc2nc2cc(Cl)ccc12` [Compound 54] came in with a chromatographic logP in data set [1] of 0.73. As to `CS(=O)(=O)Nc1ccc(Nc2c3ccccc3nc3cc(Br)ccc23)c(NCCO)c1` [Compound 28], the chromatographic logP in data set [1] was 0.11. On to `CS(=O)(=O)Nc1ccc(Nc2c3ccccc3nc3ccccc23)cc1` [AMSA, 4'-(9-acridinylamino) methanesulphonanilide], for which the “antitumour activity on L1210 leukemia” value with L1210 leukemia is listed as “good antitumour activity”.

On to `CNC(=O)c1cccc2c(Nc3ccc(NS(C)(=O)=O)cc3NC)c3ccc(Cl)cc3nc12` [Compound 23], for which, in the data set on P388 Leukemia, the “ILSmax (percentage increase in lifespan), P388” value is recorded as 59%. The molecule further returned a chromatographic logP in data set [1] of 0.23. As for `Nc1ccc(S(=O)(=O)Nc2ccc(Nc3c4ccccc4nc4ccccc34)c(NCCO)c2)cc1` [Compound 65], the “ILSmax (percentage increase in lifespan), P388” value with P388 Leukemia was 50%. Further, the chromatographic logP in data set [1] was 0.18.

With `CNc1cc(NS(C)(=O)=O)ccc1Nc1c2cccc(OC)c2nc2c(OC)cccc12` [Compound 26], the “ILSmax (percentage increase in lifespan), P388” value with P388 Leukemia is 84%. `CNc1cc(NS(C)(=O)=O)ccc1Nc1c2ccc(Cl)cc2nc2c(C)cccc12` [Compound 19] came in with a chromatographic logP in data set [1] of 0.4. The molecule `CNc1cc(NS(=O)(=O)c2ccc(N)cc2)ccc1Nc1c2ccccc2nc2cc(Br)ccc12` [Compound 63] gave a chromatographic logP in data set [1] of 0.29.

For the molecule `COC(=O)Nc1ccc(Nc2c3ccccc3nc3ccccc23)c(N(C)C)c1` [Compound 59], the “ILSmax (percentage increase in lifespan), P388” value in the data set on P388 Leukemia was determined as 51%. Also, the chromatographic logP in data set [1] amounted to 0.56. The corresponding values for `CS(=O)(=O)Nc1ccc(Nc2c3ccccc3nc3ccccc23)c(NCCO)c1` [Compound 27] are 89% and 0.07. For `CN(C)c1cc(NS(C)(=O)=O)ccc1Nc1c2ccccc2nc2ccccc12` [Compound 32], in the data set with Lewis lung carcinoma (at OD), the “cures, Lewis lung” value is on record as “all cured” and the “ILS (percentage increase in lifespan), Lewis lung” value was greater than 250%. Besides, the “ILSmax (percentage increase in lifespan), P388” value with P388 Leukemia turned out to be 212%. This molecule also gave a chromatographic logP in data set [1] of 0.41. In data set [1], `CNc1cc(NS(C)(=O)=O)ccc1Nc1c2ccccc2nc2cc(NC(=O)OC)ccc12` [Compound 11] gave a chromatographic logP of 0.13. Same read-out and setting: the result for `CNc1cc(NS(C)(=O)=O)ccc1Nc1c2ccccc2nc2c(C)cccc12` [Compound 12] reads 0.19. With `CNc1cc(NC(=O)OC)ccc1Nc1c2ccc(Cl)cc2nc2c(C)cccc12` [Compound 56], in the data set on Lewis lung carcinoma (at OD), the “ILS (percentage increase in lifespan), Lewis lung” value was found to be 100%. Further, the chromatographic logP in data set [1] was found to be 0.67.

Turning to `CNc1cc(NS(C)(=O)=O)ccc1Nc1c2ccc(F)cc2nc2c(C)cccc12` [Compound 18], the chromatographic logP in data set [1] came to 0.31.

With `CNc1cc(NP(=O)(OC)OC)ccc1Nc1c2ccccc2nc2ccccc12` [Compound 47], the “ILSmax (percentage increase in lifespan), P388” value in the data set on P388 Leukemia worked out at 118%. The chromatographic logP in data set [1] turned out to be 0.32. As to `COc1cc(NS(C)(=O)=O)ccc1Nc1c2ccccc2nc2ccccc12` [m-AMSA, 4'-(9-acridinylamino)methanesulphon-m-anisidide, reference compound], the “ILS (percentage increase in lifespan), Lewis lung” value in the data set on Lewis lung carcinoma (at OD) turned out to be 38%. In addition, the “active, Lewis lung” value in the data set on Lewis lung carcinoma (at the stated dose (OD)) was “Y/N”. Besides, the “Lewis lung activity in words” value in the data set with Lewis lung carcinoma (tumour implanted intravenously) was “minimal activity; also recorded: strictly inactive”. Also, the “ILSmax (percentage increase in lifespan), P388” value in the data set with P388 Leukemia was found to be 78%. In the data set on L1210 leukemia (vs AMSA), the “dose potency of 3'-methoxy derivative” value was “increased dose potency”. For the molecule `O=S(=O)(Nc1ccc(Nc2c3ccccc3nc3ccccc23)c(NCCO)c1)c1ccccc1` [Compound 61], the “ILSmax (percentage increase in lifespan), P388” value with P388 Leukemia is 81%. Also, in data set [1], the chromatographic logP came out at 0.35. Turning to `COC(=O)Nc1ccc(Nc2c3ccccc3nc3ccccc23)c(NCCO)c1` [Compound 51], the chromatographic logP in data set [1] amounted to 0.39. On the same count and under the same terms, to `CNc1cc(NS(C)(=O)=O)ccc1Nc1c2ccccc2nc2cc(F)ccc12` [Compound 5] belongs 0.28; to `CNc1cc(NS(C)(=O)=O)ccc1Nc1c2ccccc2nc2c(OC)cccc12` [Compound 13], 0.12.
